From patent publication US11150251B2, “Bi-functional arginine-glycine-aspartic acid (RGD) peptides and methods to promote angiogenesis” (Clemson University Research Foundation, priority 2016, dated 2021)

System: HUVECs
Test: HUVEC vascular network formation in 3D multi-signaling alginate hydrogels (integrin-binding peptide + QK peptide)
Type: cell-based, human
Conditions: 5% (w/w) MMP-responsive QK peptides, preliminary data
Text: To synergize with the α1 peptide, we used the α1 peptide and an MMP-responsive QK peptide (i.e., GPQG↓IAGKLTWQELYQLKYKGI, SEQ ID NO:41) to prepare an alginate-based injectable, multi-signaling hydrogels (FIG. 9). The MMP-responsive QK peptide was selected to introduce cell-dictated local release of angiogenic factors to recapitulate the pro-angiogenic microenvironment in vivo, where matrix bound VEGF is released by MMPs. Alginates was selected because it has been used as a biocompatible, injectable hydrogel-forming material to treat ischemic diseases.
We developed a modular approach to prepare the multi-signaling hydrogels (FIG. 10). Briefly, we have prepared alginates functionalized with α1 peptide (10% (w/w)) as well as alginates functionalized with MMP-responsive QK peptide (10% (w/w)) using click chemistry. We then mixed these two alginates at a ratio 1:1 (w/w) to prepare multi-signaling hydrogels to simultaneously engage αvβ3, VLA-6 integrins and VEGFR2. This modular approach allowed us to rapidly prepare alginates with different peptide functionalization to screen for an optimal formulation to support EC morphogenesis.

GPQG↓IAGKLTWQELYQLKYKGI (GPQGIAGKLTWQELYQLKYKGI) [MMP-responsive QK peptides, QK peptide with MMP degradable linkage]
EC vascular network formation at given QK peptide content: sufficient to promote EC vascular network formation
